With `CN(C)S(=O)(=O)c1cnc2ccccc2c1`, the logP was 1.86. For the molecule `CN(C)S(=O)(=O)c1ccnc2ccccc12`, the log partition coefficient (logP) is 1.84.

Molecule `CNS(=O)(=O)c1ccc2ccccc2n1` showed a logP of 1.57. On to `NS(=O)(=O)c1cnc2ccccc2c1`, for which the logP was determined as 0.91. Consider `NS(=O)(=O)c1ccnc2ccccc12`, for which the logP amounted to 0.93. With `CN(C)S(=O)(=O)c1cccc2ncccc12`, the logP is 1.56.

Consider `CNS(=O)(=O)c1ccnc2ccccc12`, for which the logP came to 1.32. The molecule `CNS(=O)(=O)c1ccc2ncccc2c1` had a logP of 1. `CNS(=O)(=O)c1cccc2ncccc12` registered a logP of 1.06. Consider `NS(=O)(=O)c1cccc2ncccc12`, for which the logP was 0.6. As to `CN(C)S(=O)(=O)c1ccc2ccccc2n1`, the logP amounted to 1.98. For the molecule `CN(C)S(=O)(=O)c1ccc2ncccc2c1`, the logP came out at 1.53.

`CNS(=O)(=O)c1cnc2ccccc2c1` gave a logP of 1.4. Turning to `NS(=O)(=O)c1ccc2ccccc2n1`, the logP is 1.16.

Molecule `CN(C)S(=O)(=O)c1ccc2cccnc2c1` registered a logP of 1.57.

Regarding `NS(=O)(=O)c1ccc2cccnc2c1`, the logP was found to be 0.61. In the case of `CN(C)S(=O)(=O)c1cccc2cccnc12`, the logP was 1.69. In turn, `CNS(=O)(=O)c1ccc2cccnc2c1` came in with a logP of 1.02. The molecule `CNS(=O)(=O)c1cccc2cccnc12` showed a logP of 1.13. As for `NS(=O)(=O)c1cccc2cccnc12`, the logP came to 0.51.

Source of the values: the SangsterLogP compilation.
